≈ marks a conversion by molar mass, not a printed value.
Assays:
[1] = Distribution coefficient at pH 5.0, log D; details: octanol/water
[2] = Distribution coefficient at pH 7.4, log D; details: octanol/water
[3] = Aqueous solubility at pH 7.4
[4] = Aqueous solubility at pH 5.0
[5] = Metabolic stability by incubation with rat liver microsomes treated with Phenobarbital; type: ADME, Microsome
[6] = Chemical stability at pH 1.0; type: physicochemical; details: buffer
[7] = Chemical stability at pH 3.0; type: physicochemical; details: buffer
[8] = Chemical stability at pH 5.0; type: physicochemical; details: buffer
[9] = Chemical stability at pH 7.4; type: physicochemical; details: buffer
[10] = Chemical stability at pH 9.0; type: physicochemical; details: buffer
[11] = Chemical stability in 80% human serum (pH 7.4); type: physicochemical
[12] = Metabolic stability by incubation with rat liver microsomes; type: ADME, Microsome
[13] = Metabolic stability by incubation with rat liver microsomes treated with Dexamethasone; type: ADME, Microsome
[14] = Metabolic stability by incubation with rat liver microsomes treated with 3-methylcholanthrene; type: ADME, Microsome; details: 3-methylcholanthrene-treated
[15] = Metabolic stability by incubation with human liver microsomes; type: ADME, Microsome
[16] = molecular target: T1, CYP2B6 (Homo sapiens, UniProt P20813); assay: Binding constant for compound binding to CYP2B6; type: ADME
T1 sequence (P20813 whole entry): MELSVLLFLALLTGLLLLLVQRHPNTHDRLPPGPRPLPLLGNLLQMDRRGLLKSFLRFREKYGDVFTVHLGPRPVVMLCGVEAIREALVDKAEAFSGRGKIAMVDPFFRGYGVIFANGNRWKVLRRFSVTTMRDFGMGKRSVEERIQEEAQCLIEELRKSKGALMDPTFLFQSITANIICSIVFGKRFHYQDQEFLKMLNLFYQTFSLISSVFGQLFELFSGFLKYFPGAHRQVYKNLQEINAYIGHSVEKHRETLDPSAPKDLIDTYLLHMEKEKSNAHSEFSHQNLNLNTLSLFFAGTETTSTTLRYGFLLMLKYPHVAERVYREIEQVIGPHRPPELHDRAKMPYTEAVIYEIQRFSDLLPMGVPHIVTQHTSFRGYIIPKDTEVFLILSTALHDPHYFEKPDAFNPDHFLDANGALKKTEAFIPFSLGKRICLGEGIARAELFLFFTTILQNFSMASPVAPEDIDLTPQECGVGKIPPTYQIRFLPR

[17] = Half life in rat urine at 37 °C; details: in vitro

| logD [1] | logD [2] | solubility ([3]; buffer) [µg/mL] | solubility [4] [µg/mL] | half-life [5] [h] | half-life [6] [h] | half-life [7] [h] | half-life [8] [h] | half-life [9] [h] | T1/2 [10] | half-life [11] [h] | half-life [12] [h] | half-life [13] [h] | half-life [14] [h] | half-life [15] [h] | Km [16] [µM] | half-life [17] [h] | solubility ([3]; aqueous) [µg/mL] | T1/2 [8] | T1/2 [9] | Structure (SMILES) |
| --- | --- | --- | --- | --- | --- | --- | --- | --- | --- | --- | --- | --- | --- | --- | --- | --- | --- | --- | --- | --- |
| 2.1 | 0.008 | – | – | – | – | – | – | – | – | – | – | – | – | – | – | – | – | – | – | CC(C(=O)O)c1cccc(C(=O)c2ccccc2)c1 (stereo not given) [KETOPROFEN] |
| 3.6 | 3.6 | 2 (≈ 8.22 µM) | 3 (≈ 12.3 µM) | 0.467 | 0.1 | 0.183 | 16.3 | 720 | Not Active | 591 | 0.967 | 0.767 | 0.0333 | 0.85 | 70 | 69 | – | – | – | COc1ccc2cc(CC/C(C)=N/O)ccc2c1 |
| 3.2 | 3.3 | – | 6.4 (≈ 28 µM) | – | – | – | – | – | – | – | – | – | – | – | – | – | 4.3 (≈ 18.8 µM) | – | – | COc1ccc2cc(CCC(C)=O)ccc2c1 [NABUMETONE] |
| – | – | 116000 (≈ 431000 µM) | 1800 (≈ 6680 µM) | 84 | 6 | – | – | – | Not Active | 796 | 167 | 72 | 100 | 83.6 | – | – | – | Not Active | Not Active | CC(C(=O)O)c1cccc(/C(=N\O)c2ccccc2)c1 (stereo not given) |

Source: ChEMBL document CHEMBL1149432, “Evaluation of hydroxyimine as cytochrome P450-selective prodrug structure” (J Med Chem, 2006)
